Patent US4708966A, “Novel anti-inflammatory agents, pharmaceutical compositions and methods for reducing inflammation” (The Procter & Gamble Company, priority 1986, dated 1987)

Assays:
[1] = oral anti-pyretic activity; assay type: in vivo
Procedure: (§1) In order to determine and assess pharmacological activity, testing of these compounds in animals is carried out using various assays known to those skilled in the art. […] Examples of such known tests include the carrageenan rat edema test, the oxazolone-induced inflamed mouse ear test, and the arachidonic acid-induced inflamed mouse ear test. Anti-pyretic acitivity may be tested using art-known rat models, and analgesic acitivty may be tested in art-known models such as the acetylcholine model in mice, the Randall-Selitto model in rats, and the hot-plate test in mice. Another useful art-known test is the adjuvant arthritis test which is a useful model for assessing anti-inflammatory activity and anti-resorptive activity in a chronic, rather than acute, model.

inflammation = experiment: anti-inflammatory activity in animal models of inflammation; assay type: in vivo
Procedure: as §1
These and other appropriate tests for pharmacological activity are disclosed and/or referred to in U.S. Pat. No. 4,130,666, issued Dec. 19, 1978 to Moore; U.S. Pat. No. 4,440,784, issued Apr. 3, 1984 to Katsumi et al.; Japanese patent application No. 85/54315, published Mar. 28, 1985 by Katsumi et al.; European Patent Application Publication No. 59,090, published Sept. 1, 1982 by Yamanouchi Pharmaceutical Co., Ltd.; "Prostaglandin and Leukotriene Synthesis in Mouse Ears Inflamed by Arachidonic Acid", The Journal of Investigative Dermatology, 84, pp. 253-256 (1985); U.S. Pat. No. 4,431,656, issued Feb. […]

[2] = tested on: arachidonic acid-induced inflamed mouse ear; experiment: Arachidonic Acid-Induced Inflamed Mouse Ear Test; assay type: in vivo, Adult male Cox ICR mice
Procedure: Arachidonic Acid-Induced Inflamed Mouse Ear Test
All drugs are dissolved with arachidonic acid in the vehicle. At the end of 3 hours, animals are sacrificed by cervical dislocation and both ears are removed. A 5 mm punch biopsy is removed from both ears and is weighed to the nearest 0.1 mg on a Cahn electrobalance. Ten animals are used per group. The study usually consists of 4 to 6 groups, of which one is a control group which is treated on the left ear with only arachidonic acid in the vehicle. The results are expressed as percent inhibition of the swelling response compared to the control group. Statistical tests for significance between groups are made using a one way analysis of variance of the ear weight differences. ID50 values are determined by regression analysis.

cyclooxygenase ("COX") = experiment: inhibition of cyclooxygenase in arachidonic acid metabolism; assay type: biochemical
[3] = toxicity (acute oral toxicity); assay type: in vivo; settings: test animals
[4] = tested on: adjuvant arthritis (modified Freund's adjuvant); experiment: Adjuvant Arthritis - Immunomodulatory; assay type: in vivo, Male Sprague-Dawley rats; settings: 15 mg/kg, 2 x/day, day -1 through day 7
Procedure: Adjuvant Arthritis Methodology
Male Sprague-Dawley rats weighing 167-170 gm are allowed to acclimate to the laboratory for at least 3 days. Ten rats are then assigned to the healthy control group and the remaining rats are assigned to the arthritic group. On day 0, the rats in the arthritic group are injected subcutaneously in the middle of their tail with a modified Freund's adjuvant (MFA) at a dosage of 0.05 ml/100 gm body weight. The MFA is made by grinding Mycobacterium butyricum (Mb) and then mixing with mineral oil at a concentration of 10 mg Mb/ml of mineral oil. This is mixed in an Omni mixer for 45 minutes.
Paw volumes and body weights are determined on days -1, 6, 13, 19, 26, and 29. On day 19, paw volume changes from day -1 are determined for the arthritic group. The rats with paw volume changes≥0.50 ml but ≤2.50 ml are randomized by paw volume changes into the treatment groups on day 20. On days 20 through 28, the rats are orally dosed twice a day (once a day on weekends). On day 29, two representative rats from each treatment group are photographed, paw volumes and body weights are determined, and then the rats are sacrificed with CO2 and x-rays are taken.
The radiographs are used to grade bone resorption. Bone resorption is graded in 20 areas of the fore and hind paws. The areas for grading on the hind paw are: distal femur end, proximal tibia and tibula, distal end of the tibia and the small bone under the tibia, calcaneous, tarsus, and metatarsus. The areas on the fore paws are: radius, ulna, carpus, and metacarpus. Each area is given a grade of 0 (no resorption) or 1 (resorption) for possible grade of 20 of each animal.
The same procedures as for the therapeutic, except the rats are randomly assigned to the treatment groups including the healthy control group by body weights on day -2. Paw volumes and body weights are determined on days -1, 6, 13, 20, and 27. The rats are treated from day -1 through day 7. The rats are sacrificed on day 28 and x-rayed. The radiographs are graded as above using a severity scale from 0 (no resorption) to 3 (severe resorption).

[5] = tested on: carrageenan rat paw edema; experiment: Carrageenan Rat Paw Edema Test; assay type: in vivo, Male Sprague-Dawley rats
Procedure: Carrageenan Rat Paw Edema Test
Male Sprague-Dawley rats (Charles River Laboratories) are weighed and food fasted overnight. The animals are then divided into four to six groups of six animals each according to body weights (average about 145 g) so that each group has about the same average body weight (within 10 g).
The following morning animals are dosed with the test compound and then placed in individual cages. For oral dosing, the drug is suspended in 0.5% methyl cellulose with 2% Tween 80, and delivered via stomach tube in a 5 ml volume.
Paw volumes (0 time) are determined on both hind paws with a mercury displacement device equipped with a transducer and digitizer. One hour after dosing the test compound, the animals are placed in a plastic restrainer and 50 ul of a 1% (w/w) carrageenan solution in 0.9% saline is injected into the ventral surface of the left rear paw. Four hours after the carrageenan injection, the paw volumes are again determined.
The results are expressed as percent inhibition of the mean paw volume of the test group relative to the control group. Statistical differences are determined by one way analysis of variance. ID35 values are determined by regression analysis.

[6] = antioxidant and free radical scavenging activity
lipoxygenase ("LOX") = experiment: inhibition of lipoxygenase in arachidonic acid metabolism; assay type: biochemical

## C#CCCCC(=O)c1cc(C(C)(C)C)c(O)c(C(C)(C)C)c1 [Compound 11, 4-(5'-hexynoyl)-2,6-di-t-butylphenol]
[1]
  oral anti-pyretic activity: oral anti-pyretic activity
inflammation
  oral activity in several animal models of inflammation: very good oral activity
[2]; Mus musculus, 50 ug/ear topical, 3 hours, read-out: Percent Inhibition at 50 ug/ear topical dose
  inhibition in vivo at 50 µg/ear: 43.9%
[2]; topical, by regression analysis
  ID50: 20.7 ug/ear
Cyclooxygenase ("COX")
  inhibition of cyclooxygenase (COX): dual inhibitor
[3]
  acute oral toxicity: very low acute oral toxicity
[4]
  Body Weights % Increase: 30%
  Paw Volume % Decrease: 48%
[4]; severity scale 0-3
  Bone Resorption % Inhibition: 57%
[5]; 4 h, oral, by regression analysis, read-out: ID35
  ED35: 4.8 mg/kg
[5]; po, 100 mg/kg P.O., paw volume 4 h after carrageenan, vs control group, read-out: Percent Inhibiton at 100 mg/kg dose P.O
  inhibition in vivo at 100 mg/kg: 67.6%
[6]
  antioxidant and free radical scavenging activity: antioxidant and free radical scavenging activity
Lipoxygenase ("LOX")
  inhibition of lipoxygenase (LOX): dual inhibitor
